From ChEMBL document CHEMBL4308871, “Design, synthesis and in vitro evaluation of stilbene derivatives as novel LSD1 inhibitors for AML therapy” (Bioorg Med Chem, 2018)
pIC50: −log10 of the molar value.

How the values were obtained:
[1] = biological target: T1, Amine oxidase [flavin-containing] A (Homo sapiens, UniProt P21397); assay: Inhibition of MAO-A (unknown origin) using (4S)-4,5-dihydro-2-(6-hydroxybenzothiazolyl)-4-thiazolecarboxylic acid as substrate by MAO-Glo assay
T1 sequence (P21397 whole entry): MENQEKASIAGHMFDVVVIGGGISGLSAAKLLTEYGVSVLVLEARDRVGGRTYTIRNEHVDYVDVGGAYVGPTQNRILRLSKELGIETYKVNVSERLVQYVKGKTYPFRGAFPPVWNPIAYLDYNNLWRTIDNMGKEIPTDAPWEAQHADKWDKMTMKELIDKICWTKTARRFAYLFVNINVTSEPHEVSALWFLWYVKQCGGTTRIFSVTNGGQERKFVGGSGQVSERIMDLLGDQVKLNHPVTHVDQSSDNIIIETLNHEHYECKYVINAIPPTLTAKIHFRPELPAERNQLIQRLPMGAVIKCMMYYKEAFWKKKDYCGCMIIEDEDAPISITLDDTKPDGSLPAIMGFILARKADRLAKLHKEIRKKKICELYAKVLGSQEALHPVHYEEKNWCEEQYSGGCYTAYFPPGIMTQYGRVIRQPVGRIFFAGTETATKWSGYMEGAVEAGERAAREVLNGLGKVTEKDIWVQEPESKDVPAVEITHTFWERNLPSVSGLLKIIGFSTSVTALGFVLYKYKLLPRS

[2] = biological target: T2, Amine oxidase [flavin-containing] B (Homo sapiens, UniProt P27338)
T2 sequence (P27338 whole entry): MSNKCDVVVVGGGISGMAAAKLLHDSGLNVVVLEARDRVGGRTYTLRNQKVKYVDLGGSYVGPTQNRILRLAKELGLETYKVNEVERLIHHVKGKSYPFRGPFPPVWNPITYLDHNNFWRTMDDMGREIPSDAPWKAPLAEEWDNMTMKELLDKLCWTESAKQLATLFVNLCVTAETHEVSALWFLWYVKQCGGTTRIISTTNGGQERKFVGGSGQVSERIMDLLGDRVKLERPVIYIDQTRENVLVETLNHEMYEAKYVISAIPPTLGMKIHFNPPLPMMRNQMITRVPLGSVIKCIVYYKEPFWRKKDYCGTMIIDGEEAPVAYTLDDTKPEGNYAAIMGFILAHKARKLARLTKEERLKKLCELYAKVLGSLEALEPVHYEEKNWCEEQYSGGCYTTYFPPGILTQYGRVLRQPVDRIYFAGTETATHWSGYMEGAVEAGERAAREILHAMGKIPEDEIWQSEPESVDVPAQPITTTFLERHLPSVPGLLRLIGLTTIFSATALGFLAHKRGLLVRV

MOLM-13 = assay: cells; conditions: Homo sapiens, MOLM-13, 192 h
THP-1 [3] = assay: cells; conditions: Homo sapiens, THP-1, 192 h
MV4-11 = assay: cells; conditions: Homo sapiens, MV4-11, 192 h
[4] = biological target: Lysine-specific histone demethylase 1A (Homo sapiens, UniProt O60341); assay: Inhibition of full length LSD1 (unknown origin) expressed in Escherichia coli BL21 (DE) using H3K4me2 peptide as substrate after 30 mins by fluorescence assay
THP-1 [5] = assay: Inhibition of colony formation in human THP1 cells after 14 days by DAPI staining-based microscopic analysis; format: functional, cell-based
THP-1 [6] = assay: Induction of morphological changes in human THP1 cells assessed as blurred cell membrane boundaries after 3 days by H and E staining based assay; format: functional
THP-1 [7] = assay: Induction of morphological changes in human THP1 cells assessed as chromatin shrinkage after 3 days by H and E staining based assay; format: functional, cell-based

| SMILES | pIC50 [1] | pIC50 [2] | pIC50 (MOLM-13) | pIC50 (THP-1 [3]) | pIC50 (MV4-11) | pIC50 [4] | inhibition (THP-1 [5]) | Activity (THP-1 [6]) | Activity (THP-1 [7]) |
| --- | --- | --- | --- | --- | --- | --- | --- | --- | --- |
| N/C(=N\O)c1cccc(/C=C/c2ccnc(-c3ccccc3O)c2)c1 | < 4.30 | < 4.30 | 5.04 | 4.86 | 4.80 | – | – | – | – |
| N/C(=N\O)c1cccc(/C=C/c2ccc(O)c(-c3ccccn3)c2)c1 | < 4.30 | < 4.30 | 4.65 | 5.10 | 5.33 | – | – | – | – |
| Nc1cccc(/C=C/c2ccc(O)c(-c3ccccn3)c2)c1 | < 4.30 | < 4.30 | 4.90 | 4.98 | 4.96 | 6.52 | – | – | – |
| N/C(=N\O)c1cccc(/C=C/c2ccnc(-c3cc(F)ccc3O)c2)c1 | < 4.30 | < 4.30 | 5.08 | 5.24 | 5.13 | – | Dose-dependent effect | Dose-dependent effect | Dose-dependent effect |
| N[C@H]1CC[C@H](N[C@@H]2C[C@H]2c2ccccc2)CC1 | – | – | – | < 4.70 | – | – | – | – | – |
